The subject of this data set is tumour spheroids from primary ovarian cancer tissue. The data set can be described thus: Ovarian cancer spheroid model, ATP assay (CellTiter-Glo) of cell viability / metabolic activity.

Method: Fresh primary ovarian cancer samples were obtained after informed consent of the individual patient was given. Patients were recruited following clinical diagnosis, and prior to chemotherapy commencing.
Heterotypic tumour spheroids were prepared from the individual primary ovarian cancer tissue. The tumour samples were mechanically and enzymatically digested using an enzyme cocktail (Roche, Penzberg Germany), cell viability determined using the trypan-blue exclusion test, and spheroids seeded at a cell density of 50,000 using a modified liquid overlay method. After 48 h in cell culture under standard conditions, successful spheroid formation was documented photographically before starting treatment.
Each experiment was repeated six times, and both untreated (medium) control and two positive controls (carboplatin+paclitaxel and vorinostat) were used under the same culture conditions. Treatment efficacy, i.e. treatment-induced reduction of the cellular metabolic activity (cell viability) was analyzed using a standard ATP assay.
Once the feasibility study was completed, tumour spheroids consisting of 50,000 cells were prepared from the individual primary ovarian cancer tissue as described above. After 48 h, spheroid formation was documented photographically before starting treatment. […] Treatment efficacy was evaluated using a standard ATP assay, details of which are provided below.
ATP assay test from Promega: CellTiter-Glo®. The CellTiter-Glo® Luminescent Cell Viability Assay is a homogeneous method to determine the number of viable cells in culture based on quantitation of the ATP present, which signals the presence of metabolically active cells. […] The homogeneous assay procedure involves adding a single reagent (CellTiter-Glo® Reagent) directly to cells cultured in serum-supplemented medium.
The homogeneous “add-mix-measure” format results in cell lysis and generation of a luminescent signal proportional to the amount of ATP present.

Regarding `Cn1c(CCCCCCC(=O)NO)nc2cc(N(CCCl)CCCl)ccc21` [EDO-S101, 7-(5-(bis(2-chloroethyl)amino)-1-methyl-1H-benzo[d]imidazol-2-yl)-N-hydroxyheptanamide], the “reduction in cell viability to” value (FIG. 1, patient #5284, 5 μM, after 48 h) was 50%. For the same molecule, the “reduction in cell viability (compared to the untreated control)” value is reported as approximately 80% (FIG. 1, patient #5284, 7.5 μM) and approximately 80% (FIG. 1, patient #5284, 10 μM). The “cell viability compared to control untreated spheroids” value (FIG. 1, patient #5284, 2.5-10 μM) is “A reduction in cell viability was observed”. The “reduction in cell viability compared with carboplatin+paclitaxel” value reads like this: (FIG. 1, patient #5284, 5, 7.5 and 10 μM, after 48 h) “greater than that in spheroids treated with carboplatin+paclitaxel after 48 h”; (FIG. 1, patient #5284, 5, 7.5 and 10 μM, after 72 h) “comparable after 72 h”. Moreover, under “FIG. 1, patient #5284, 5, 7.5 and 10 μM, all time points”, the “reduction in cell viability compared with vorinostat” value was “greater than that in spheroids treated with vorinostat at all time points”. Also, the “time dependence of cell viability” value runs as follows: (FIG. 1, patient #5284, higher concentrations) “did not decrease in a time dependent manner”; (FIG. 1, patient #5284, lower concentrations, 48 h to 96 h) “decreased in a time dependent manner”. For the same molecule, the “efficacy compared with positive controls” value (FIG. 2, patient #5285, feasibility study) was “better than both carboplatin+paclitaxel or vorinostat”. The “reduction in cell viability, combination therapy” value (FIG. 4, n=8, EDO-S101 5 μM, carboplatin 110 μM, paclitaxel 1.79 μM, 72 h) is on record as “median reduction in cell viability comparable to carboplatin+paclitaxel, but with enhanced average potency across the experimental group”. Further, the “effect of adding EDO-S101 to other treatments” value is “further reduced metabolic activity when used in combination with carboplatin, paclitaxel and carboplatin+paclitaxel” (FIG. 6, patient #5295, 72 h); “enhanced efficacy when in combination with carboplatin, paclitaxel and carboplatin+paclitaxel” (FIG. 7, patient #5296, 72 h). Also, the “efficacy compared with carboplatin” value (FIG. 6, patient #5295, 72 h) is “comparable to that of carboplatin”. The “metabolic activity (ATP assay)” value runs as follows: (FIG. 6, patient #5295, 72 h) “shows a reduction in metabolic activity compared to the negative control”; (FIG. 7, patient #5296, 72 h) “enhanced reduction in metabolic activity compared to vorinostat, carboplatin or paclitaxel”; (FIG. 8, patient #5310, 72 h, samples from ovary and omentum) “effective in treating ovarian cancer from the omentum”; (FIG. 9, patient #5311, 72 h) “comparable efficacy to that observed in spheroids treated with vorinostat”; (FIG. 10, patient #5329, 72 h) “comparable or improved activity compared to vorinostat and carboplatin as monotherapies”.
On to `CC(=O)O[C@H]1C(=O)[C@@]2(C)[C@H]([C@H](OC(=O)c3ccccc3)[C@]3(O)C[C@H](OC(=O)[C@H](O)[C@@H](NC(=O)c4ccccc4)c4ccccc4)C(C)=C1C3(C)C)[C@]1(OC(C)=O)CO[C@@H]1C[C@@H]2O` [paclitaxel, reference compound], for which the “metabolic activity (ATP assay)” value (FIG. 6, patient #5295, 72 h) is “negligible efficacy”.
The same measure, in the same setting: next, `O=C(CCCCCCC(=O)Nc1ccccc1)NO` [vorinostat, reference compound]: “negligible efficacy”.

These data come from patent US11896583B2, “Tinostamustine for use in treating ovarian cancer” (EURO-CELTIQUE S.A., priority 2017, dated 2024).
